One assay relates to Female SD rats. Kind of assay: Effect on increasing blood sugar in rats caused by sucrose. Type of assay: in vivo, rat. The settings on record: for Value of blood sugar: dose 100 mg/kg. The method, then: Female SD rats fasted for 24 hours and were randomly divided into several groups. […] The normal group, control group and blank group were given the same amount of water. The given medicine volume was […], after 30 minutes each group was given saccharose 1/kg(5 ml/kg) except the normal group, and blood was extracted from the eyes of rats after 30, 60 and 120 minutes respectively, the content of glucose in the serum was measured.

The test system of a further assay is normal mice. Kind of assay: Effect of compound B on blood sugar in normal mice. The settings on record: for Value of blood sugar: dose 100 mg/kg. Type of assay: in vivo. The method, then: The positive control group orally took tolbutol at 100 mg/kg. The blank control group took orally same distilled water. The volume of medicine given is 20 ml/kg, lasting 14 days. The test drug was administered (provided that they are pre-forbidden to give food 5 hrs before administration) after the days 1, 3, 7, 14 of administration. 3 hrs after administration, blood (10 ul) was taken from the eyepit. The content of dextrose in serum was measured by reagent box.

Assay [1] deals with Male Kun Ming strain mice. The assay is described as follows: Effect of compound F on blood sugar elevation after oral dextrose. The settings on record: dose 50 mg/kg oral, 7 days. Type of assay: in vivo. The method, then:
Effect of compound F on blood sugar elevation in rat.
Male Kun Ming strain mice are divided into randomly experimental groups, and they respectively took orally the compound F at […]. The positive control group took orally glybenclamide 50 mg/kg, and the blank control group and normal control group take orally the same distilled water. The volume of medicine given is 20 ml/kg, lasting 7 days. They are forbidden to give feedstuff 10 hours before the last time of administration. Each group is given 2.5 g/kg (10 ml/kg) dextrose solution except of normal control group. Before and after 30 minute of administration of dextrose, 100 ul of blood was sampled from the eyepit, and the content of dextrose in serum was measured by way of dextrose oxygenation enzyme.

Assay [2] has as its system blood platelet aggregation in rabbits. Kind of assay: Effect of compound B on blood platelet aggregation in rabbits in vitro (ADP). Type of assay: cell-based, rabbit. The method, then:
Blood was taken from rabbit heart by puncture, to which was added 3.8% potassium citrate for anticoagulation (1:9). Certification for 15 minute at 1000 rpm takes the upper layer as rich blood platelet plasma (prp), and then centrifugation for 10 minutes with 4000 rpm takes the supernatant as poor blood platelet plasma (ppp). […] 10 μl physiological brine of aspirin was added to a positive control tube, then it was put into a measuring cell after warming for 2 minutes at 37° C. 10 ul of physiological brine solution of ADP sodium salt was added with stirring. The final concentration is […]. The maximal aggregation ratio on PAM-1 type of blood platelet instrument was observed within 3 minutes.

The subject of the next assay is rabbit's blood platelets. The assay is described as follows: Effect of compound F on aggregation of rabbit's blood platelets in vitro. Type of assay: cell-based. How it is done:
Effect of Compound F on Blood Platelet Aggregation in Rabbit
Take blood from rabbit heart by puncturing, add 3.8% of potassium citrate for anticoagulation (1:9), centrifuge for 15 minutes at 1000 rpm, take the upper layer as blood platelet rich plasma (prp), and then centrifuge for 10 minutes at […], and take supematant as blood platelet poor plasma (ppp). The final concentration of compound F is respectively 250, 500, 1000 μg/ml, and the final concentration is respectively 250, 500, 1000 ug/ml. Add 10 ul of physical brine of aspirin to the positive-control tube to a final concentration of 250 μg/ml, and add 10 μl of physical brine to the control tube […]. Observe the maximal aggregation ratio on PAM-1 type instrument of blood platelet aggregation within 3 minute.

Molecules are shown by their SMILES.

The record followed here is patent publication US6833443B1, “Gymnemic acid derivatives, process for the preparation thereof and use thereof as medicine” (Guilin Jiqi Pharmaceutical Co., Ltd., priority 1999, dated 2004).

Take `[H]/N=C(/N)N/C(=N/[H])NCCc1ccccc1` [phenformin]: the “Effect on the increased value of blood sugar (in words)” value in the assay with Female SD rats (compound B 200 mg/kg, performing 100 mg/kg, within 30 minutes) was “reduce the increased value of blood sugar remarkably”. In addition, the “Value of blood sugar” value is reported as 4.24 ± 0.87 mmol/L with Female SD rats (30 minutes after sucrose), 4.74 ± 0.90 mmol/L in the assay with Female SD rats (60 minutes after sucrose) and 4.79 ± 1.03 mmol/L in the assay on Female SD rats (120 minutes after sucrose).
With `CCCCNC(=O)NS(=O)(=O)c1ccc(C)cc1` [tolbutol], the “Effect on blood sugar of normal mice (in words)” value with normal mice (Compound B 50, 100, 200 mg/kg for 14 days, tolbutol from day 3) was “obvious effect for lowering the blood sugar of normal mice”. Besides, the “Value of blood sugar” value with normal mice (day 1) is listed as 6.48 ± 1.18; in the assay with normal mice (day 3), 5.22 ± 0.80; with normal mice (day 7), 6.62 ± 0.96; in the assay on normal mice (day 14), 5.75 ± 1.02.
For `COc1ccc(Cl)cc1C(=O)NCCc1ccc(S(=O)(=O)NC(=O)NC2CCCCC2)cc1` [glybenclamide], the results for the “Value of blood sugar” value in assay [1] (0 minute (before dextrose)) and in assay [1] (30 minutes after dextrose) were 4.48 ± 0.83 and 8.18 ± 1.72, respectively.
Usually inhibition stands for how much of the control response was suppressed. In the case of `CC(=O)Oc1ccccc1C(=O)O` [Aspirin, aspirin], the “Inhibition of blood platelet aggregation (in words)” value in assay [2] (compound B 500, 1000 μg/ml, aspirin 250 μg/ml) is listed as “obviously inhibit blood platelet from aggregating”. In addition, the Inhibition ratio in assay [2] (final concentration 250) amounted to 50.3. In addition, in assay [2] (final concentration 250 (μg/ml), ADP, within 3 minutes), the “Maximal aggregation ratio (%)” value was determined as 23.7 ± 6.0 %. For the same compound, in the assay with rabbit's blood platelets (Oryctolagus cuniculus, Platelet, final concentration 250 μg/ml, read-out: Inhibition rate (%)), the inhibition at 250 µg/mL was 50.3%. In addition, the “Inhibition of aggregation of blood platelet (in words)” value with rabbit's blood platelets (compound F 500, 1000 μg/ml, aspirin 250 μg/ml) is “obviously inhibit the aggregation of blood platelet”. In the assay with rabbit's blood platelets (final concentration 250 μg/ml, within 3 minute), the “Maximal aggregation rate (%)” value was determined as 23.7 ± 6.0 %.
